{
  "source": "PubChem BioAssay (NCI)",
  "assay_in_all_cases": "DTP human tumour cell line panel, 384-well format",
  "key": {"786-0 renal": {"tested_on": "786-0 renal"}, "A498 renal": {"tested_on": "A498 renal"}, "A549 NSCLC": {"tested_on": "A549 NSCLC"}, "ACHN renal": {"tested_on": "ACHN renal"}, "BT-549 breast": {"tested_on": "BT-549 breast"}, "CAKI-1 renal": {"tested_on": "CAKI-1 renal"}, "CCRF-CEM leukemia": {"tested_on": "CCRF-CEM leukemia"}, "COLO 205 colon": {"tested_on": "COLO 205 colon"}, "DU-145 prostate": {"tested_on": "DU-145 prostate"}, "EKVX NSCLC": {"tested_on": "EKVX NSCLC"}, "HCC-2998 colon": {"tested_on": "HCC-2998 colon"}, "HCT-116 colon": {"tested_on": "HCT-116 colon"}, "HCT-15 colon": {"tested_on": "HCT-15 colon"}, "HL-60(TB) leukemia": {"tested_on": "HL-60(TB) leukemia"}, "HOP-62 NSCLC": {"tested_on": "HOP-62 NSCLC"}, "HOP-92 NSCLC": {"tested_on": "HOP-92 NSCLC"}, "HS 578T breast": {"tested_on": "HS 578T breast"}, "IGROV1 ovarian": {"tested_on": "IGROV1 ovarian"}, "K-562 leukemia": {"tested_on": "K-562 leukemia"}, "LOX IMVI melanoma": {"tested_on": "LOX IMVI melanoma"}, "M14 melanoma": {"tested_on": "M14 melanoma"}, "MALME-3M melanoma": {"tested_on": "MALME-3M melanoma"}, "MCF7 breast": {"tested_on": "MCF7 breast"}, "MDA-MB-231 breast": {"tested_on": "MDA-MB-231 breast"}, "MDA-MB-435 melanoma": {"tested_on": "MDA-MB-435 melanoma"}, "MDA-MB-468 breast": {"tested_on": "MDA-MB-468 breast"}, "MOLT-4 leukemia": {"tested_on": "MOLT-4 leukemia"}},
  "note": "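The concentration for 50% growth inhibition is given as GI50. TGI marks complete inhibition of growth.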",
  "data": [
    {"smiles": "COc1cc(OC)cc(N2CCN(C(=O)Nc3nc4cc(F)ccc4nc3OC)CC2)c1", "values": [
      {"measurement": "GI50", "setting": "786-0 renal", "result": 28.4, "unit": "nM"},
      {"measurement": "TGI", "setting": "786-0 renal", "result": 267, "unit": "nM"},
      {"measurement": "GI50", "setting": "A498 renal", "result": "< 10", "unit": "nM"},
      {"measurement": "TGI", "setting": "A498 renal", "result": 96.6, "unit": "nM"},
      {"measurement": "GI50", "setting": "A549 NSCLC", "result": 38.2, "unit": "nM"},
      {"measurement": "TGI", "setting": "A549 NSCLC", "result": 18500, "unit": "nM"},
      {"measurement": "GI50", "setting": "ACHN renal", "result": 65.7, "unit": "nM"},
      {"measurement": "TGI", "setting": "ACHN renal", "result": 20200, "unit": "nM"},
      {"measurement": "GI50", "setting": "BT-549 breast", "result": 23.7, "unit": "nM"},
      {"measurement": "TGI", "setting": "BT-549 breast", "result": 68.5, "unit": "nM"},
      {"measurement": "GI50", "setting": "CAKI-1 renal", "result": 15.8, "unit": "nM"},
      {"measurement": "TGI", "setting": "CAKI-1 renal", "result": 15100, "unit": "nM"},
      {"measurement": "GI50", "setting": "CCRF-CEM leukemia", "result": 18.7, "unit": "nM"},
      {"measurement": "TGI", "setting": "CCRF-CEM leukemia", "result": 33.3, "unit": "nM"},
      {"measurement": "GI50", "setting": "COLO 205 colon", "result": 27.7, "unit": "nM"},
      {"measurement": "TGI", "setting": "COLO 205 colon", "result": 84.8, "unit": "nM"},
      {"measurement": "GI50", "setting": "DU-145 prostate", "result": 34.7, "unit": "nM"},
      {"measurement": "TGI", "setting": "DU-145 prostate", "result": 249, "unit": "nM"},
      {"measurement": "GI50", "setting": "EKVX NSCLC", "result": 27.5, "unit": "nM"},
      {"measurement": "TGI", "setting": "EKVX NSCLC", "result": 14600, "unit": "nM"},
      {"measurement": "GI50", "setting": "HCC-2998 colon", "result": 20.7, "unit": "nM"},
      {"measurement": "TGI", "setting": "HCC-2998 colon", "result": 76.9, "unit": "nM"},
      {"measurement": "GI50", "setting": "HCT-116 colon", "result": 31.2, "unit": "nM"},
      {"measurement": "TGI", "setting": "HCT-116 colon", "result": 151, "unit": "nM"},
      {"measurement": "GI50", "setting": "HCT-15 colon", "result": 22.4, "unit": "nM"},
      {"measurement": "TGI", "setting": "HCT-15 colon", "result": 1180, "unit": "nM"},
      {"measurement": "GI50", "setting": "HL-60(TB) leukemia", "result": 16.5, "unit": "nM"},
      {"measurement": "TGI", "setting": "HL-60(TB) leukemia", "result": 30.6, "unit": "nM"},
      {"measurement": "GI50", "setting": "HOP-62 NSCLC", "result": 21.8, "unit": "nM"},
      {"measurement": "TGI", "setting": "HOP-62 NSCLC", "result": 1700, "unit": "nM"},
      {"measurement": "GI50", "setting": "HOP-92 NSCLC", "result": 48.3, "unit": "nM"},
      {"measurement": "TGI", "setting": "HOP-92 NSCLC", "result": 15600, "unit": "nM"},
      {"measurement": "GI50", "setting": "HS 578T breast", "result": 17, "unit": "nM"},
      {"measurement": "TGI", "setting": "HS 578T breast", "result": 35.6, "unit": "nM"},
      {"measurement": "GI50", "setting": "IGROV1 ovarian", "result": 42.5, "unit": "nM"},
      {"measurement": "TGI", "setting": "IGROV1 ovarian", "result": 15000, "unit": "nM"},
      {"measurement": "GI50", "setting": "K-562 leukemia", "result": 17.4, "unit": "nM"},
      {"measurement": "TGI", "setting": "K-562 leukemia", "result": 43.3, "unit": "nM"},
      {"measurement": "GI50", "setting": "LOX IMVI melanoma", "result": 39.8, "unit": "nM"},
      {"measurement": "TGI", "setting": "LOX IMVI melanoma", "result": 380, "unit": "nM"},
      {"measurement": "GI50", "setting": "M14 melanoma", "result": 15.7, "unit": "nM"},
      {"measurement": "TGI", "setting": "M14 melanoma", "result": 38.2, "unit": "nM"},
      {"measurement": "GI50", "setting": "MALME-3M melanoma", "result": 24.7, "unit": "nM"},
      {"measurement": "TGI", "setting": "MALME-3M melanoma", "result": 14800, "unit": "nM"},
      {"measurement": "GI50", "setting": "MCF7 breast", "result": 26.2, "unit": "nM"},
      {"measurement": "TGI", "setting": "MCF7 breast", "result": 5570, "unit": "nM"},
      {"measurement": "GI50", "setting": "MDA-MB-231 breast", "result": 54.5, "unit": "nM"},
      {"measurement": "TGI", "setting": "MDA-MB-231 breast", "result": 84700, "unit": "nM"},
      {"measurement": "GI50", "setting": "MDA-MB-435 melanoma", "result": "< 10", "unit": "nM"},
      {"measurement": "TGI", "setting": "MDA-MB-435 melanoma", "result": 21.2, "unit": "nM"},
      {"measurement": "GI50", "setting": "MDA-MB-468 breast", "result": 16.1, "unit": "nM"},
      {"measurement": "TGI", "setting": "MDA-MB-468 breast", "result": 32.1, "unit": "nM"},
      {"measurement": "GI50", "setting": "MOLT-4 leukemia", "result": 18.2, "unit": "nM"},
      {"measurement": "TGI", "setting": "MOLT-4 leukemia", "result": 32.8, "unit": "nM"}
    ]}
  ]
}
